Laboratory results taken from patent US20260001849A1, “NOVEL B0AT1 INHIBITOR” (MITSUBISHI TANABE PHARMA CORPORATION, priority 2023, published 2026).
Where two headings read alike, the source gives them in different places.

Tests used:
hERG channel = target: T1, hERG channel (Homo sapiens, UniProt Q12809); experiment: hERG channel inhibitory activity, whole-cell patch clamp (auto-patch clamp system); format: cell-based; conditions: read-out: hERG IC50
T1 construct: host or cells: CHO cells
Procedure: Evaluation of hERG (Human Ether-a-go-go Related Gene) Channel Inhibitory Activity
The hERG channel inhibitory activity of the compound of the present invention was measured using CHO cells (B′ SYS GmbH) forcibly expressing hERG channels involved in human rapidly active delayed rectifier potassium current (IKr) by the whole-cell patch clamp method using an auto-patch clamp system (SyncroPatch384PE).
Cell suspension, extracellular fluid, intracellular fluid, and measurement plate (NPC-384 plate) were placed in the auto-patch clamp system, and hERG current measurements were performed using the whole-cell patch clamp method. The voltage protocol was set to a holding potential of −80 mV, with a depolarizing pulse preceded by −90 mV (100 ms) and followed by −80 mV (100 ms).
The depolarizing pulse was […] (500 ms), and then the hERG peak current value obtained during the ramp phase was measured when the voltage was lowered to −80 mV over 100 ms. The protocol was applied at 5-second intervals for 5 minutes for each concentration.
SyncroPatch software (manufactured by Nanion) was used for data analysis. Four concentrations were applied incrementally for each test substance, and the average hERG Peak current value obtained from the last three stimuli of each applied concentration was used as the evaluation data. The IC50 value was calculated from the inhibition rate of the current at each concentration of each test substance relative to the pre-application value using Hill's equation (Hill equation) using the relevant software.
The same experiments were also performed using the example compounds described in WO 2023/145804 as comparative example compounds 1-4.

Human BOAT1 = target: T2, Human BOAT1 (Homo sapiens, UniProt Q695T7); experiment: hBOAT1 inhibitory test (phenylalanine uptake); format: cell-based; conditions: Human BOAT1 stable expression CHO cells, phenylalanine 0.25 mM, read-out: hB0AT1 IC50
T2 construct: expressed in transfected cells
T2 sequence (Q695T7 1-634): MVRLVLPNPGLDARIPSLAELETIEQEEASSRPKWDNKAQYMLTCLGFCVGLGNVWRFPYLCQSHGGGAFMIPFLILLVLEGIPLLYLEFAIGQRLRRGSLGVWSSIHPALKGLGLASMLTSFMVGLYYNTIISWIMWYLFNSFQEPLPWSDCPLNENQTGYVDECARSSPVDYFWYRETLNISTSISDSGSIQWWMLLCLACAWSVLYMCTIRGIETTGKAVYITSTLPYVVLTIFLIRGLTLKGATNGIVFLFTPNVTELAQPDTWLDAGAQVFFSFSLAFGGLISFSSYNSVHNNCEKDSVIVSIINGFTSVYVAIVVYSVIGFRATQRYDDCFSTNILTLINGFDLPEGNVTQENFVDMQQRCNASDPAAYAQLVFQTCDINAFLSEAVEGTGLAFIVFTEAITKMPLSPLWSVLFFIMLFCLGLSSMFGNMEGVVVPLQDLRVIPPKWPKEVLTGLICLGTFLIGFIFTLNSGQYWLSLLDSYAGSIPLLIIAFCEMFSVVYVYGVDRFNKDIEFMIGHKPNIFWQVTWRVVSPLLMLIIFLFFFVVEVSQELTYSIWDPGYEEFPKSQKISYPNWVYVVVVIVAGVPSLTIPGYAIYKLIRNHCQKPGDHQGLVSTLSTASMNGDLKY
How it was run: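 Human BOAT1 stably expressed in CHO cells (75000 cells/well) in HEPES-buffered NaCl/KCl/CaCl2/MgCl2 buffer with 0.01% BSA, compound at 0.5% DMSO, preincubated ≥30 min at ordinary temperature. Uptake of L-phenylalanine plus [3H]-L-phenylalanine (0.25 mM final) read by scintillation proximity; 100–200 min values analysed, non-specific uptake defined with […] reference inhibitor.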

[1] = [3H]-L-phenylalanine uptake, radioactivity after 100 to 200 min

T1 sequence (Q12809 whole entry): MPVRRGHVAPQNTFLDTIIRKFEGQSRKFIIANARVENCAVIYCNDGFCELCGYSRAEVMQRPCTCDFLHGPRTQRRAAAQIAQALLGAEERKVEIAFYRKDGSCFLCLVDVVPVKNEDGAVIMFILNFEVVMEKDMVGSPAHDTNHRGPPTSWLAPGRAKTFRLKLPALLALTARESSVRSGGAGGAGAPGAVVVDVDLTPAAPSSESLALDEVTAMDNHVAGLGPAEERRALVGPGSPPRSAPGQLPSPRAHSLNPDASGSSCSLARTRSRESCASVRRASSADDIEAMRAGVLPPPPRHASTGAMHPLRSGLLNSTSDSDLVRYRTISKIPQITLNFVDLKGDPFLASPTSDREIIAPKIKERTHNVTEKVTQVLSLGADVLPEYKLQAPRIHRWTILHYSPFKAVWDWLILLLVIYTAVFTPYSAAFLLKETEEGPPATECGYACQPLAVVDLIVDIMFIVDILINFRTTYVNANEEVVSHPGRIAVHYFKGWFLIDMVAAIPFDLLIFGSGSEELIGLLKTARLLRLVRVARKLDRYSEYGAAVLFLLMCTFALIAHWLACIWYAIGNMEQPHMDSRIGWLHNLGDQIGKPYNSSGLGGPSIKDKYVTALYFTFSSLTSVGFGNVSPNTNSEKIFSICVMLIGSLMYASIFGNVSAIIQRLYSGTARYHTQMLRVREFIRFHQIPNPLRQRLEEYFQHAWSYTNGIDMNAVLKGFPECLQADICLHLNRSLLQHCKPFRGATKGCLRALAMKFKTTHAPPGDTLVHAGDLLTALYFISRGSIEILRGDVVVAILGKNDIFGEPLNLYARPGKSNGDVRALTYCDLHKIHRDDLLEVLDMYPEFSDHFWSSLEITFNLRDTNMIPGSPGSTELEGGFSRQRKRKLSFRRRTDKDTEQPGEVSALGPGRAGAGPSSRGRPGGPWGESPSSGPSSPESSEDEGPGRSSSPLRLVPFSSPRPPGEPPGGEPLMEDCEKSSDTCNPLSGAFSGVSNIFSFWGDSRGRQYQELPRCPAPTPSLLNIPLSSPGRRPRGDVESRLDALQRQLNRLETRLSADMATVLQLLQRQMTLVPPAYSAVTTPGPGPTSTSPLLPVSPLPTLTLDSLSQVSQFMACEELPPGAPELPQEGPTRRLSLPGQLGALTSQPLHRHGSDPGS

IC50 (Human BOAT1; phenylalanine uptake) [nM] | IC50 (Human BOAT1; [1]) [nM] | SMILES | IC50 (hERG channel) [nM]
119 | – | O=C(O)CCCN1CCN(C(=O)CNC(=O)/C=C/c2ccc(C(F)(F)F)cc2F)C(c2ccccc2)C1 (single isomer, unassigned) [I-290, 4-[4-[2-[[(E)-3-[2-fluoro-4-(trifluoromethyl)phenyl]prop-2-enoyl]amino]acetyl]-3-phenylpiperazin-1-yl]butanoic acid] | > 30000
338 | – | CC(C)[C@@H]1CN(C(=O)CNC(=O)/C=C/c2ccc(C(F)(F)F)cc2F)[C@@H](c2ccccc2)CN1CCCC(=O)O [I-342] | > 30000
– | 149 | O=C(O)Cc1nc2c(s1)CN(C(=O)CNC(=O)/C=C/c1ccc(C(F)(F)F)cc1)CC2 [I-202] | > 30000
– | 246 | O=C(O)CCCN1CCN(C(=O)CNC(=O)/C=C/c2ccc(C(F)(F)F)cc2)C(c2ccccc2)C1 (stereo not drawn) [I-204] | > 30000
– | 91 | O=C(O)CSc1nc2c(s1)CN(C(=O)CNC(=O)/C=C/c1ccc(C(F)(F)F)cc1F)CC2 [I-214] | > 30000
– | 94 | O=C(O)CCCN1CCN(C(=O)CNC(=O)/C=C/c2ccc(C(F)(F)F)cc2F)C(c2ccc(Cl)cc2)C1 (racemic) [I-236, 4-[3-(4-chlorophenyl)-4-[2-[[(E)-3-[2-fluoro-4-(trifluoromethyl)phenyl]prop-2-enoyl]amino]acetyl]piperazin-1-yl]butanoic acid] | > 30000
75 | – | [2H]C([2H])([2H])[C@@H]1CN(C(=O)CNC(=O)/C=C/c2ccc(C(F)(F)F)cc2F)[C@@H](c2ccccc2)CN1CCCC(=O)O [I-397] | > 30000
636 | – | C[C@@H]1CN(C(=O)CNC(=O)/C=C/c2ccc(C(F)(F)F)cc2F)[C@@H](c2cccnc2)CN1CCCC(=O)O [I-395] | > 30000
– | 370 | C[C@@H]1CN(C(=O)CNC(=O)/C=C/c2ccc(C(F)(F)F)cc2F)[C@H](C)CN1CCCC(=O)O [I-199] | > 30000
– | 141 | O=C(O)Cc1ccc2c(c1F)CCN(C(=O)CNC(=O)/C=C/c1ccc(C(F)(F)F)cc1)C2 [I-162] | > 30000
– | 101 | O=C(O)Cc1cc2c(cc1Cl)CN(C(=O)CNC(=O)/C=C/c1ccc(C(F)(F)F)cc1)CC2 [I-226] | > 30000
– | 70 | Cc1cccc([C@H]2CN(CCCC(=O)O)[C@H](C)CN2C(=O)CNC(=O)/C=C/c2ccc(C(F)(F)F)cc2F)c1 [I-385] | 21000
– | 186 | CC(C)(Oc1cc(F)c2c(c1)CCN(C(=O)CNC(=O)/C=C/c1ccc(C(F)(F)F)cc1)C2)C(=O)O [I-195] | > 30000
– | 46 | O=C(O)Cc1ccc2c(c1)CCN(C(=O)CNC(=O)/C=C/c1ccc(I)cc1)C2 [I-183] | > 30000
93 | – | C[C@@H]1CN(C(=O)CNC(=O)/C=C/c2ccc(C(F)(F)F)cc2F)[C@@H](c2ccc(F)c(F)c2)CN1CCCC(=O)O [I-349] | > 30000
– | 199 | O=C(O)CCCN1CCN(C(=O)CNC(=O)/C=C/c2ccc(C(F)(F)F)cc2F)C(c2ccc(F)cc2)C1 (stereo not drawn) [I-237] | > 30000
– | 295 | N#Cc1cc2c(cc1CC(=O)O)CCN(C(=O)CNC(=O)/C=C/c1ccc(C(F)(F)F)cc1F)C2 [I-225] | 26200
– | 99 | O=C(O)Cc1cc(F)c2c(c1)CCN(C(=O)CNC(=O)/C=C/c1ccc(C(F)(F)F)cc1F)C2 [I-205] | > 30000
